Experimental data as given in patent US6555499B1, “Herbicide agent” (Syngenta Crop Protection, Inc., priority 1999, dated 2003).

Experiments:
[1] = tested on: Avena; assay: Post-emergence test, Example B1: Avena; format: in vivo; conditions: greenhouse, herbicide 25 g/ha, where combined cloquintocet-mexyl 6.25 g/ha, MERGE 1% by weight of spray mixture, evaluated after 2 to 4 weeks, 100%=complete destruction
Text: (§1) A standard soil is used as cultivation substrate.
(§2) The rate of application of herbicide is in each case 25 g/ha; the rate of application of cloquintocet-mexyl is 6.25 g/ha. As oil additive, MERGE® is used in a concentration of 1% by weight of the spray mixture.

[2] = tested on: Alopecurus; assay: Post-emergence test, Example B1: Alopecurus; format: in vivo; conditions: greenhouse, herbicide 25 g/ha, where combined cloquintocet-mexyl 6.25 g/ha, MERGE 1% by weight of spray mixture, evaluated after 2 to 4 weeks, 100%=complete destruction
Text: as §1, §2

[3] = tested on: weeds; assay: Post-emergence test, Example B1: weeds overall, in words; format: in vivo, Apera, Alopecurus, Avena; conditions: herbicide 25 g/ha, where combined cloquintocet-mexyl 6.25 g/ha, MERGE 1%
Text: as §1, §2

[4] = tested on: Apera; assay: Post-emergence test, Example B1: Apera; format: in vivo; conditions: greenhouse, herbicide 25 g/ha, where combined cloquintocet-mexyl 6.25 g/ha, MERGE 1% by weight of spray mixture, evaluated after 2 to 4 weeks, 100%=complete destruction
Text: as §1, §2

Row | Structure (SMILES) | Herbicidal action on Avena [1] | Herbicidal action on Alopecurus [2] | Herbicidal action on the weeds (in words) [3] | Herbicidal action on Apera [4]
1 | CCc1cc(C)cc(CC)c1C1C(=O)N2CCOCCN2C1=O [compound no. 1.007] | 10% | 10% | only slight to moderate herbicidal action | 60%
2 | CCc1cc(C)cc(CC)c1-c1c(OC(=O)C(C)(C)C)n2n(c1=O)CCOCC2 [compound no. 1.008] | 20% | 20% | only slight to moderate herbicidal action | 25%
